Measured values: patent US20260027116A1, “Methods of Treating Chronic Graft-Versus-Host Disease Following Allogeneic Hematopoietic Stem Cell Transplantation” (Kadmon Corporation, LLC, priority 2022, published 2026)

Experiments:
[1] = test system: patients with cGVHD; experiment: Example 2: safety, adverse events, relative dose intensity; assay type: in vivo; details: for Cough / Diarrhea / Dyspnea / Fatigue / Headache / Muscle spasms / Nausea / Peripheral edema / Upper respiratory tract infection / Vomiting: All grades; for Hyperglycemia / Hypertension / Pneumonia: Grade ≥ 3; for ALT increased / AST increased / Bilirubin conjugated increased / Blood alkaline phosphatase increased / GGT increased / Hypoalbuminemia / LFT increased / Transaminases increased: Liver-related AE
Method: All responses were assessed by the study site investigators.

[2] = test system: cGVHD; experiment: Example 1: corticosteroid and calcineurin inhibitor dose change; assay type: in vivo, human
Method: Progression was defined per the 2014 NIH cGVHD Consensus Criteria. Long-term follow-up was conducted every 8 weeks until study closeout. […] Screening was conducted within 28 days of the first study dose. Response was initially assessed after two cycles; however, this was amended to evaluate response on day 1 of each cycle, starting at cycle 2 day 1.
Change from Baseline in Corticosteroids Dose. An EOT visit was performed within 3 days after the participant's last dose of study drug. Baseline value was defined as valid and last non-missing value obtained within 28 days prior to participant receiving first study medication. The mITT population was analyzed, with the ‘overall number of participants analyzed’=participants with available data for this outcome measure.
Change from Baseline in Calcineurin Inhibitor (CNI). Calcineurin inhibitors included systemic tacrolimus and cyclosporine. Number of participants who took CNI at Baseline and had reduction and discontinuation in CNI use as compared to Baseline during the study are reported in this outcome measure. EOT visit was performed within 3 days after the participant's last dose of study drug. Baseline value was defined as valid and last non-missing value obtained within 28 days prior to participant receiving first study medication.

[3] = molecular target: human serum albumin (Homo sapiens, UniProt P02768); experiment: protein binding in vitro; assay type: in vitro ADME
human serum albumin, sequence (P02768 25-609): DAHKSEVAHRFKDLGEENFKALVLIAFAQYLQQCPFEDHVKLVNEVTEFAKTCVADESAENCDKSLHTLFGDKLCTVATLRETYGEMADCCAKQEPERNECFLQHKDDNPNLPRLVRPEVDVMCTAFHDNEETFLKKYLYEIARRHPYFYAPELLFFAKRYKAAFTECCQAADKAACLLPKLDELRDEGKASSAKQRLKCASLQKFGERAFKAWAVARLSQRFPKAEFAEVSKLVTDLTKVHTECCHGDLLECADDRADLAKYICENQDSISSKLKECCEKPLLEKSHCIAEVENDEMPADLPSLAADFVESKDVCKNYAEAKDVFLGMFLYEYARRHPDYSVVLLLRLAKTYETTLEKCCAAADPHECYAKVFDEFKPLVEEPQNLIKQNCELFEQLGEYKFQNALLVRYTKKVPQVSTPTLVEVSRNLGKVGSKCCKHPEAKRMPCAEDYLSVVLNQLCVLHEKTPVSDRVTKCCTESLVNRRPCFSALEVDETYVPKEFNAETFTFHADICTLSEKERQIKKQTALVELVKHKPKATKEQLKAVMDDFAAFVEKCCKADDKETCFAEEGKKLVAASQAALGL

[4] = pharmacokinetics in healthy subjects (bioavailability, food effect, distribution, excretion); assay type: in vivo, human

Compound: CC(C)NC(=O)COc1cccc(-c2nc(Nc3ccc4[nH]ncc4c3)c3ccccc3n2)c1 [Belumosudil, 2-{3-[4-(1H-indazol-5-ylamino)-2-quinazolinyl]phenoxy}-N-(propan-2-yl) acetamide]
- Any AE ([1]; 200 mg daily (n = 66)): 65 (99) n (%)
- Deaths ([1]; 200 mg daily (n = 66)): 8 (12) n (%)
- Drug-related AEs ([1]; 200 mg daily (n = 66)): 49 (74) n (%)
- Drug-related SAEs ([1]; 200 mg daily (n = 66)): 5 (8) n (%)
- Grade ≥ 3 AEs ([1]; 200 mg daily (n = 66)): 37 (56) n (%)
- Liver-related AEs ([1]; 200 mg daily (n = 66)): 12 (18) n (%)
- SAEs ([1]; 200 mg daily (n = 66)): 27 (41) n (%)
- Any AE ([1]; 200 mg twice daily (n = 66)): 66 (100) n (%)
- Deaths ([1]; 200 mg twice daily (n = 66)): 6 (9) n (%)
- Drug-related AEs ([1]; 200 mg twice daily (n = 66)): 40 (61) n (%)
- Drug-related SAEs ([1]; 200 mg twice daily (n = 66)): 2 (3) n (%)
- Grade ≥ 3 AEs ([1]; 200 mg twice daily (n = 66)): 34 (52) n (%)
- Liver-related AEs ([1]; 200 mg twice daily (n = 66)): 19 (29) n (%)
- SAEs ([1]; 200 mg twice daily (n = 66)): 23 (35) n (%)
- Cough ([1]; 200 mg daily (n = 66)): 20 (30) n (%)
- Diarrhea ([1]; 200 mg daily (n = 66)): 23 (35) n (%)
- Dyspnea ([1]; 200 mg daily (n = 66)): 21 (32) n (%)
- Fatigue ([1]; 200 mg daily (n = 66)): 30 (46) n (%)
- Headache ([1]; 200 mg daily (n = 66)): 13 (20) n (%)
- Muscle spasms ([1]; 200 mg daily (n = 66)): 13 (20) n (%)
- Nausea ([1]; 200 mg daily (n = 66)): 23 (35) n (%)
- Peripheral edema ([1]; 200 mg daily (n = 66)): 17 (26) n (%)
- Upper respiratory tract infection ([1]; 200 mg daily (n = 66)): 17 (26) n (%)
- Vomiting ([1]; 200 mg daily (n = 66)): 18 (27) n (%)
- Cough ([1]; 200 mg twice daily (n = 66)): 17 (26) n (%)
- Diarrhea ([1]; 200 mg twice daily (n = 66)): 21 (32) n (%)
- Dyspnea ([1]; 200 mg twice daily (n = 66)): 12 (18) n (%)
- Fatigue ([1]; 200 mg twice daily (n = 66)): 20 (30) n (%)
- Headache ([1]; 200 mg twice daily (n = 66)): 18 (27) n (%)
- Muscle spasms ([1]; 200 mg twice daily (n = 66)): 13 (20) n (%)
- Nausea ([1]; 200 mg twice daily (n = 66)): 18 (27) n (%)
- Peripheral edema ([1]; 200 mg twice daily (n = 66)): 13 (20) n (%)
- Upper respiratory tract infection ([1]; 200 mg twice daily (n = 66)): 18 (27) n (%)
- Vomiting ([1]; 200 mg twice daily (n = 66)): 10 (15) n (%)
- Cough ([1]; Total (N = 132)): 37 (28) n (%)
- Diarrhea ([1]; Total (N = 132)): 44 (33) n (%)
- Dyspnea ([1]; Total (N = 132)): 33 (25) n (%)
- Fatigue ([1]; Total (N = 132)): 50 (38) n (%)
- Headache ([1]; Total (N = 132)): 31 (24) n (%)
- Muscle spasms ([1]; Total (N = 132)): 26 (20) n (%)
- Nausea ([1]; Total (N = 132)): 41 (31) n (%)
- Peripheral edema ([1]; Total (N = 132)): 30 (23) n (%)
- Upper respiratory tract infection ([1]; Total (N = 132)): 35 (27) n (%)
- Vomiting ([1]; Total (N = 132)): 28 (21) n (%)
- SAE pneumonia ([1]; Example 2): 7%
- deaths from multiorgan failure and infection possibly related to belumosudil ([1]; Example 2): 2
- grade 3 or 4 hyperglycemia ([1]; Example 2): 5%
- grade 3 or 4 hypertension ([1]; Example 2): 6%
- grade 3 or 4 pneumonia ([1]; Example 2): 8%
- grade ≥3 anemia ([1]; Example 2): 3%
- grade ≥3 cytopenias ([1]; Example 2): < 4%
- grade ≥3 neutropenia ([1]; Example 2): 2%
- grade ≥3 thrombocytopenia ([1]; Example 2): 2%
- increased GGT (AE) ([1]; Example 2): 12%
- median RDI ([1]; Example 2): 99.7%
- subjects who died during the study ([1]; Example 2): Fourteen
- subjects who discontinued because of overall AEs ([1]; Example 2): 21%
- subjects who discontinued because of possible drug-related AEs ([1]; Example 2): 12%
- subjects who discontinued because of progression of cGVHD ([1]; Example 2): 16%
- subjects who discontinued because of progression of underlying malignant disease ([1]; Example 2): 4%
- subjects who received an RDI >95% ([1]; Example 2): Eighty-one
- subjects with increased liver function tests (LFTs) ([1]; Example 2): Twenty-four
- subjects with ≥1 SAE ([1]; Example 2): Thirty eight
- tolerability ([1]; Example 2): well tolerated
- cases of Epstein-Barr viremia that required treatment ([1]; Example 2, unrelated to belumosudil): 1 case
- Hyperglycemia ([1]; 200 mg daily (n = 66)): 3 (5) n (%)
- Hypertension ([1]; 200 mg daily (n = 66)): 4 (6) n (%)
- Pneumonia ([1]; 200 mg daily (n = 66)): 6 (9) n (%)
- Hyperglycemia ([1]; 200 mg twice daily (n = 66)): 3 (5) n (%)
- Hypertension ([1]; 200 mg twice daily (n = 66)): 4 (6) n (%)
- Pneumonia ([1]; 200 mg twice daily (n = 66)): 4 (6) n (%)
- Hyperglycemia ([1]; Total (N = 132)): 6 (5) n (%)
- Hypertension ([1]; Total (N = 132)): 8 (6) n (%)
- Pneumonia ([1]; Total (N = 132)): 10 (8) n (%)
- ALT increased ([1]; 200 mg daily (n = 66)): 4 (6) n (%)
- AST increased ([1]; 200 mg daily (n = 66)): 5 (8) n (%)
- Bilirubin conjugated increased ([1]; 200 mg daily (n = 66)): 1 (2) n (%)
- Blood alkaline phosphatase increased ([1]; 200 mg daily (n = 66)): 4 (6) n (%)
- GGT increased ([1]; 200 mg daily (n = 66)): 6 (9) n (%)
- Hypoalbuminemia ([1]; 200 mg daily (n = 66)): 2 (3) n (%)
- LFT increased ([1]; 200 mg daily (n = 66)): 1 (2) n (%)
- Transaminases increased ([1]; 200 mg daily (n = 66)): 1 (2) n (%)
- ALT increased ([1]; 200 mg twice daily (n = 66)): 7 (11) n (%)
- AST increased ([1]; 200 mg twice daily (n = 66)): 8 (12) n (%)
- Bilirubin conjugated increased ([1]; 200 mg twice daily (n = 66)): 0 n (%)
- Blood alkaline phosphatase increased ([1]; 200 mg twice daily (n = 66)): 6 (9) n (%)
- GGT increased ([1]; 200 mg twice daily (n = 66)): 10 (15) n (%)
- Hypoalbuminemia ([1]; 200 mg twice daily (n = 66)): 2 (3) n (%)
- LFT increased ([1]; 200 mg twice daily (n = 66)): 0 n (%)
- Transaminases increased ([1]; 200 mg twice daily (n = 66)): 1 (2) n (%)
- ALT increased ([1]; Total (N = 132)): 11 (8) n (%)
- AST increased ([1]; Total (N = 132)): 13 (10) n (%)
- Bilirubin conjugated increased ([1]; Total (N = 132)): 1 (1) n (%)
- Blood alkaline phosphatase increased ([1]; Total (N = 132)): 10 (8) n (%)
- GGT increased ([1]; Total (N = 132)): 16 (12) n (%)
- Hypoalbuminemia ([1]; Total (N = 132)): 4 (3) n (%)
- LFT increased ([1]; Total (N = 132)): 1 (1) n (%)
- Transaminases increased ([1]; Total (N = 132)): 2 (2) n (%)
- Any AE ([1]; Total (N = 132)): 131 (99) n (%)
- Drug-related AEs ([1]; Total (N = 132)): 89 (67) n (%)
- Drug-related SAEs ([1]; Total (N = 132)): 7 (5) n (%)
- Grade ≥ 3 AEs ([1]; Total (N = 132)): 71 (54) n (%)
- Liver-related AEs ([1]; Total (N = 132)): 31 (24) n (%)
- SAEs ([1]; Total (N = 132)): 50 (38) n (%)
- Deaths ([1]; Total (N = 132), six died during LTFU (>28 days after last dose)): 14 (11) n (%)
- Change From Baseline in Corticosteroids Dose, mean (SD) ([2]; Cohort 1 200 mg QD): −0.110 (0.101) milligrams per kilogram per day
- Participants who discontinued CNI, n (%) ([2]; Cohort 1 200 mg QD): 0 (0%)
- Participants with reduction in CNI dose, n (%) ([2]; Cohort 1 200 mg QD): 5 (83%)
- mean percent change in CS dose from baseline, nonresponder ([2]; Cohort 1 200 mg QD): −26%
- mean percent change in CS dose from baseline, overall ([2]; Cohort 1 200 mg QD): −50%
- mean percent change in CS dose from baseline, responder ([2]; Cohort 1 200 mg QD): −63%
- Change From Baseline in Corticosteroids Dose, mean (SD) ([2]; Cohort 2 200 mg BID): −0.111 (0.147) milligrams per kilogram per day
- Participants who discontinued CNI, n (%) ([2]; Cohort 2 200 mg BID): 1 (17%)
- Participants with reduction in CNI dose, n (%) ([2]; Cohort 2 200 mg BID): 5 (83%)
- mean percent change in CS dose from baseline, nonresponder ([2]; Cohort 2 200 mg BID): −37%
- mean percent change in CS dose from baseline, overall ([2]; Cohort 2 200 mg BID): −36%
- mean percent change in CS dose from baseline, responder ([2]; Cohort 2 200 mg BID): −36%
- Change From Baseline in Corticosteroids Dose, mean (SD) ([2]; Cohort 3 400 mg QD): −0.116 (0.152) milligrams per kilogram per day
- Participants who discontinued CNI, n (%) ([2]; Cohort 3 400 mg QD): 3 (27%)
- Participants with reduction in CNI dose, n (%) ([2]; Cohort 3 400 mg QD): 6 (55%)
- mean percent change in CS dose from baseline, nonresponder ([2]; Cohort 3 400 mg QD): −19%
- mean percent change in CS dose from baseline, overall ([2]; Cohort 3 400 mg QD): −47%
- mean percent change in CS dose from baseline, responder ([2]; Cohort 3 400 mg QD): −63%
- median time to corticosteroid therapy discontinuation ([2]; Example 1): 29 weeks
- mean corticosteroid dose reduction ([2]; Example 1, all patients): 45%
- mean corticosteroid dose reduction ([2]; Example 1, nonresponders): 26%
- mean corticosteroid dose reduction ([2]; Example 1, responders): 55%
- mean percent change in CS dose from baseline, nonresponder ([2]; Total, N=54): −26%
- mean percent change in CS dose from baseline, overall ([2]; Total, N=54): −45%
- mean percent change in CS dose from baseline, responder ([2]; Total, N=54): −55%
- proportion with CS reduction, % (95% CI) ([2]; Total, N=54): 67%
- binding to human serum albumin [3]: 99.9%
- food effect, Cmax increase ([4]; high-fat high-calorie meal vs fasted): 2.2 times
- radioactivity recovered in feces ([4]; single oral radiolabeled dose): 85%
- radioactivity recovered in urine ([4]; single oral radiolabeled dose): less than 5%
- recovered in feces as unchanged ([4]; single oral radiolabeled dose): 30%
